Experimental data published in patent US7524880B2, “Crystalline form of a substituted pyrrolidine compound” (Theravance, Inc., priority 2004, dated 2009).
Structures can show the parent of a compound that is named as a salt. Each block holds one molecule with its values, some of them ahead of it.

Tests used:
[1] = tested on: MCh-induced depressor responses; assay: Methacholine-induced depressor responses in conscious guinea pigs; assay type: in vivo; details: conscious guinea pig, inhalation
Excerpt: Healthy, adult, male Sprague-Dawley guinea pigs (Harlan, Indianapolis, Ind.), weighing between 200 and 300 g were used in these studies. Under isoflurane anesthesia (to effect), animals were instrumented with common carotid artery and jugular vein catheters (PE-50 tubing). The catheters were exteriorized utilizing a subcutaneous tunnel to the subscapular area. All surgical incisions were sutured with 4-0 Ethicon Silk and the catheters locked with heparin (1000 units/mL). Each animal was administered saline (3 mL, SC) at the end of surgery as well as buprenorphine (0.05 mg/kg, IM). Animals were allowed to recover on a heating pad before being returned to their holding rooms.
Approximately 18 to 20 hours following surgery, the animals were weighed and the carotid artery catheter on each animal was connected to a transducer for recording arterial pressure. Arterial pressure and heart rate was recorded using a Biopac MP-100 Acquisition System. Animals were allowed to acclimate and stabilize for a period of 20 minutes.
Each animal was challenged with methylcholine (MCh) (0.3 mg/kg, iv) administer through the jugular venous line and the cardiovascular response was monitored for 10 minutes. […] At 1.5 and 24 h post-dosing, the animals were re-challenged with MCh (0.3 mg/kg, iv) and the hemodynamic response was determined. […]

[2] = Thermal analysis (DSC/TGA); assay type: physicochemical; details: heating ramp 5° C./min, ambient to about 300° C.
Method: Differential scanning calorimetry (DSC) was performed using a TA Instruments Model Q-10 module with a Thermal Analyst controller. Data were collected and analyzed using TA Instruments Thermal Solutions software. A sample of about 1 mg was accurately weighed into an aluminum pan with lid. The sample was evaluated using a linear heating ramp of 5° C./min from ambient temperature to approximately 300° C. The DSC cell was purged with dry nitrogen during use. A representative DSC trace for a sample of the crystalline naphthalene-1,5-disulfonic acid salt of 2-[(S)-1-(8-methylaminooctyl)pyrrolidin-3-yl]-2,2-diphenylacetamide of Example 5 is shown in FIG. 2.
Thermogravimetric analysis (TGA) was performed using a TA Instruments Model Q-50 module equipped with high resolution capability. Data were collected and analyzed using TA Instruments Thermal Solutions software. A sample weighing about 10 mg was placed onto a platinum pan and scanned with a high resolution-heating rate from ambient temperature to 300° C. The balance and furnace chambers were purged with nitrogen flows during use. A representative TGA trace for a sample of the crystalline naphthalene-1,5-disulfonic acid salt of 2-[(S)-1-(8-methylaminooctyl)pyrrolidin-3-yl]-2,2-diphenylacetamide of Example 5 is shown in FIG. 2.

[3] = Solid state stability assessment (HPLC); assay type: physicochemical
Method: Samples of the crystalline naphthalene-1,5-disulfonic acid salt of 2-[(S)-1-(8-methylaminooctyl)pyrrolidin-3-yl]-2,2-diphenylacetamide of Example 5, about 30 mg each, were stored in multiple 3 mL borosilicate vials at −20° C. (closed container), 40° C./75% RH (open and closed container), and at 80° C. (closed container). At specific intervals, the entire contents of a representative vial was analyzed by the following HPLC method:
Samples were prepared as 1 mg/mL solutions using 50% EtOH and 50% citrate buffer (10 mM pH 5 in normal saline). These solutions were then injected onto the HPLC.
The initial purity of the samples was 99.5% as determined by HPLC area percentage. […] (closed container) and 40° C./75% RH (open and closed container).

[4] = Dynamic moisture sorption assessment; assay type: physicochemical; details: for deliquescence: exposed to atmospheric moisture
Method: A dynamic moisture sorption (DMS) assessment (also known as a moisture sorption-desorption profile) was performed for a sample of a crystalline naphthalene-1,5-disulfonic acid salt of 2-[(S)-1-(8-methylaminooctyl)pyrrolidin-3-yl]-2,2-diphenylacetamide (prepared according to the procedure of Example 5) using a VTI atmospheric microbalance, SGA-100 system (VTI Corp., Hialeah, Fla. 33016). A sample size of approximately 10 mg was used and the humidity was set at the ambient value at the start of the analysis. A typical DMS analysis consisted of three scans: ambient to 2% RH, 2% RH to 90% RH, 90% RH to 5% RH at a scan rate of 5% RH/step. The mass was measured every two minutes and the RH was changed to the next value (+/−5% RH) when the mass of the sample was stable to within 0.01% for 5 consecutive points.
The salt has an acceptable 1.9% weight gain when it exposed to a broad humidity range from 2% RH up to 90% RH and it has a less than 1% weight gain in the humidity range of 40% RH to 75% RH.

[5] = Solution state stability assessment (HPLC); assay type: physicochemical; details: for change in purity (HPLC): 1 mg/mL and 0.1 mg/mL in normal saline, 10 mM citrate pH 5
Method: Samples of the crystalline naphthalene-1,5-disulfonic acid salt of 2-[(S)-1-(8-methylaminooctyl)pyrrolidin-3-yl]-2,2-diphenylacetamide of Example 5 were used to prepare an inhalation solution consisting of 1 mg/mL and 0.1 mg/mL salt in normal saline with 10 mM citrate buffer adjusted to pH 5. The resulting solutions were placed in 3 mL borosilicate vials and stoppered with Teflon grey plug stoppers. The solutions were then stored at −20° C., 5° C., 30° C., 60° C. The samples were analyzed according to the HPLC method described in Example 10. After approximately six months for the solutions stored at −20° C., 5° C., and 30° C. there was no detectable change in purity observed (less than 0.5%) for samples stored at 60° C. less than 5% change in purity was observed.

[6] = Micronization with a jet mill, comparison with unmicronized material; assay type: physicochemical; details: micronized compared to unmicronized material
Excerpt: A sample of a crystalline naphthalene-1,5-disulfonic acid salt of 2-[(S)-1-(8-methylaminooctyl)pyrrolidin-3-yl]-2,2-diphenylacetamide (prepared according to the procedure of Examples 4 and 5) was micronized with a jet mill to give a free-flowing white powder with birefringence observed upon microscopic examination.

[7] = solid, 3 months, all conditions

Structure (SMILES): CNCCCCCCCCN1CC[C@@H](C(C(N)=O)(c2ccccc2)c2ccccc2)C1 [Example 1, 2-[(S)-1-(8-Methylaminooctyl)pyrrolidin-3-yl]-2,2-diphenylacetamide]
apparent lung-selectivity index (ratio of anti-depressor ID50 to bronchoprotective ID50) [1]: greater than 5

thermal decomposition (DSC) [2]: no thermal decomposition below 200 °C
chemical degradation by HPLC ([3]; 6 months storage at 40° C. and 75% relative humidity): no detectable chemical degradation
change in the appearance of the material [3, 7]: no observable change
differences by DSC and TGA [3, 7]: no detectable differences
change in chemical purity (HPLC) ([3]; solid, 3 months, all conditions: −20° C. closed, 40° C./75% RH open and closed, 80° C. closed): less than 0.5%
chemical degradation by HPLC ([3]; storage for 28 days at 40° C. and 75% relative humidity): less than 0.5%
weight gain on exposure to humidity ([4]; 2% RH up to 90% RH): 1.9%
weight gain on exposure to humidity ([4]; 2% RH up to 90% RH, listed as crystalline naphthalene-1,5-disulfonic acid salt of the compound of formula I): less than 2%
deliquescence [4]: not deliquescent
deliquescence ([4]; listed as crystalline naphthalene-1,5-disulfonic acid salt): not to be deliquescent
weight gain on exposure to humidity ([4]; humidity range of 40% RH to 75% RH): less than 1%
hygroscopicity (moderate) ([4]; reversible sorption/desorption profile): < 5%
change in purity (HPLC) ([5]; approximately six months at 60° C.): less than 5%
change in purity (HPLC) ([5]; approximately six months at −20° C., 5° C. and 30° C.): less than 0.5%
change in pH values of solutions ([5]; inhalation solutions in normal saline, 10 mM citrate pH 5, approximately six months): no appreciable change
Structure (SMILES): CNCCCCCCCCN1CC[C@@H](C(C(N)=O)(c2ccccc2)c2ccccc2)C1 [Example 5, 2-[(S)-1-(8-Methylaminooctyl)pyrrolidin-3-yl]-2,2-diphenylacetamide Naphthalene-1,5-disulfonic Acid Salt]
chemical or physical differences ([3]; solid, 6 months at −20° C. (closed) and 40° C./75% RH (open and closed)): no detectable chemical or physical differences

change in PXRD pattern, TGA trace, DSC trace, DMS trace, chemical purity, chiral purity and moisture content [6]: No change was observed
Structure (SMILES): CNCCCCCCCCN1CC[C@@H](C(C(N)=O)(c2ccccc2)c2ccccc2)C1 [Example 14, naphthalene-1,5-disulfonic acid salt of 2-[(S)-1-(8-methylaminooctyl)pyrrolidin-3-yl]-2,2-diphenylacetamide]
